Data reported in patent US6624202B2, “Inhibitors of copper-containing amine oxidases” (priority 2000, dated 2003).
Structures can show the parent of a compound that is named as a salt. Where two headings read alike, the source gives them in different places.

Assays:
Total rat MAO = Total rat MAO activity (rat liver mitochondrial preparation, colourimetric); type: biochemical; settings: rat liver mitochondria; 0.5 mM tyramine; 1 h at 37° C.; read-out: Total MAO inhibitory activity IC50
Procedure: Rat MAO was prepared from rat liver by rinsing the 1 g liver sample several times in 14 ml KCl-EDTA-solution to remove all blood. Then 1 g liver sample was homogenised in 4 ml ice-cold potassium phosphate buffer (0.1 M, pH 7.4) with an Ultra-Turrax homogeniser (setting 11 000 rpm, 4×10 s). After centrifugation at 500 g for 10 min at 4° C. the supernatant was carefully withdrawn and was centrifuged at 12 300 g for 15 min at 4° C. The supernatant was discharged and sedimented mitochondria were resuspended in 4 ml fresh phosphate buffer and centrifuged as previously. The mitochondria were suspended in 4 ml phosphate buffer and homogenized with an Ultra-Turrax homogeniser (setting 11 000 rpm, 2×10 s). Mitochondrial preparate was aliquoted and stored at −70° C. Total MAO activity was measured in a similar way as for VAP-1 SSAO except that 2,4-dichlorophenol was replaced by 1 mM vanillic acid. To each well was added a predetermined amount of inhibitor if required. The amount of inhibitor varied in each assay but was generally at a final concentration of between 10 nM and 800 μM. Controls lacked inhibitor. The inhibitor was in a total volume of 20 μl in water. The following reagents were then added. 0.2 M potassium phosphate buffer pH 7.6 for a total reaction volume of 300 μl, 50 μl of fleshly made chromogenic solution (as above) and 50 μl of MAO preparation. The plates were incubated for 30 min at 37° C. and the background absorbance measured at 490 nm using a Wallac Victor II multilabel counter. To initiate the enzyme reaction 20 μl of 5 mM tyramine (final concentration 0.5 mM) was added and the plate incubated for 1 h at 37° C. The increase in absorbance, reflecting MAO activity, was measured at […]. Inhibition was presented as percent inhibition compared to control after correcting for background absorbance and IC50 values calculated using GraphPad Prism. Clorgyline and pargyline (inhibitors of MAO-A and -B respectively) at 0.5 μM were added to some wells as positive controls for MAO inhibition.

[1] = target: T1, Recombinant human VAP-1 SSAO (Homo sapiens, UniProt Q16853); experiment: In vitro inhibition of VAP-1 SSAO activity (coupled colourimetric method); type: biochemical; settings: for IC50: 1 mM benzylamine, 1 h at 37° C.; for Selectivity for VAP-1 SSAO over MAO: ratio of total rat MAO IC50 to human VAP-1 SSAO IC50
T1 sequence (Q16853 1-763): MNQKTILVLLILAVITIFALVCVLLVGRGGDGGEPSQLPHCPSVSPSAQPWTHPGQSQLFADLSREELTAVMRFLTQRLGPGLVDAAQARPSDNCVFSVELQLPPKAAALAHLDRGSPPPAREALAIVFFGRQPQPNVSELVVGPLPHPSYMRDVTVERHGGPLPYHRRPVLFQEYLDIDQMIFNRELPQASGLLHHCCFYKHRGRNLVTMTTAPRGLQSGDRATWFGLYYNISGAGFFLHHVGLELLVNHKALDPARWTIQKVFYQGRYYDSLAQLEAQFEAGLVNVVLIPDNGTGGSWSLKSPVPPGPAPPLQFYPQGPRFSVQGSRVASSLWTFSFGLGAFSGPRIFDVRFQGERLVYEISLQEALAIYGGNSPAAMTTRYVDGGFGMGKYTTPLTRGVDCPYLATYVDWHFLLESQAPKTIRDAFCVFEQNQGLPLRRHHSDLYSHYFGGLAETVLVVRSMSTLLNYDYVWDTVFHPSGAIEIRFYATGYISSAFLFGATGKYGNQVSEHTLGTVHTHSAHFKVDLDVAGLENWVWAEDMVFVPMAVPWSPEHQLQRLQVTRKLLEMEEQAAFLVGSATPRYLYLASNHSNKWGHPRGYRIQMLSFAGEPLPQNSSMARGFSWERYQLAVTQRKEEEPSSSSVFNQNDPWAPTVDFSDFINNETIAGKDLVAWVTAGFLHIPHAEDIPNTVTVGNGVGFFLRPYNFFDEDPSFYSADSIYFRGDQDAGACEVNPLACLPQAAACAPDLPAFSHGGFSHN
Procedure: VAP-1 SSAO activity was measured using the coupled colourimetric method essentially as described for monoamine oxidase and related enzymes (Holt, A., et al., Anal. Biochem. 244:384-392 (1997)). Recombinant human VAP-1 SSAO expressed in Chinese Hamster Ovary (CHO) cells was used as a source of VAP-1 SSAO for activity measurements. […] These cells and their culture have previously been described (Smith, D. J., et al., J. Exp. Med. 188:17-27 (1998)). A cell lysate was prepared by suspending approximately 3.6×10^8 cells in 25 ml lysis buffer (150 mM NaCl, 10 mM Tris-Base pH 7.2, 1.5 mM MgCl2, 1% NP40) and incubating at 4° C. overnight on a rotating table. The lysate was clarified by centrifugation at 18000 g for 5 min at room temperature and the supernatant used directly in the assay. The VAP-1 SSAO assay was performed in 96 well microtitre plates as follows. To each well was added a predetermined amount of inhibitor if required. […] Controls lacked inhibitor. The inhibitor was in a total volume of 20 μl in water. The following reagents were then added. 0.2 M potassium phosphate buffer pH 7.6 to a total reaction volume of 200 μl, 45 μl of freshly made chromogenic solution containing 1 mM 2,4-dichlorophenol, 500 μM 4-aminoantipyrine and 4 U/ml horseradish peroxidase and an amount of CHO cell lysate containing VAP-1 SSAO that caused a change of 0.6 A490 per h. […] The plates were incubated for 30 min at 37° C. and the background absorbance measured at 490 nm using a Wallac Victor II multilabel counter. To initiate the enzyme reaction 20 μl 10 mM benzylamine (final concentration=1 mM) was added and the plate incubated for 1 h at 37° C. The increase in absorbance, reflecting VAP-1 SSAO activity, was measured at 490 nm. Inhibition was presented as percent inhibition compared to control after correcting for background absorbance and IC50 values calculated using GraphPad Prism.

[2] = lysate of CHO cells expressing recombinant human VAP-1 SSAO, read-out: VAP-1 SSAO inhibitory activity IC50
[3] = VAP-1 SSAO inhibitory activity IC50, lysate of CHO cells expressing recombinant human VAP-1 SSAO

| Molecule | IC50 (Total rat MAO) [nM] | IC50 [1, 2] [nM] | Selectivity for VAP-1 SSAO over MAO [1] | IC50 [1, 3] [nM] |
| --- | --- | --- | --- | --- |
| 2-(1-methylhydrazino)-1-phenylethanol hydrogenmaleate [Compound 6] | 8900 | 65 | 137 |  |
| C[C@@H]([C@H](O)c1ccccc1)N(C)N (racemic) [Compound 10] | 36000 |  | 120 | 300 |
| C[C@@H]([C@H](O)c1ccccc1)N(C)N (racemic) [Compound 12] |  |  | 138 | 290 |
| CCN(N)[C@@H](C)[C@H](O)c1ccccc1 (racemic) [Compound 13] |  | 1520 | 16 |  |
| CCCN(N)C(C)C(O)c1ccccc1 (racemic) [Compound 14] |  | 129000 | >6 |  |
| C[C@@H]([C@H](O)c1ccccc1)N(N)CC1CC1 (racemic) [Compound 15] |  | 1380 | 7 |  |
| CC(C(O)c1ccccc1)N(N)Cc1ccccc1 (racemic) [Compound 16] |  | 4000 | 62 |  |
| C[C@@H]([C@H](O)c1ccccc1)N(N)Cc1ccccc1 (racemic) [Compound 17] |  | 34000 | 6 |  |
| COc1ccc(CN(N)C(C)C(O)c2ccccc2)cc1 (racemic) [Compound 18] |  | 2600 | 9 |  |
| CN(N)C(C)(C)C(O)c1ccccc1 (racemic) [Compound 20] |  | 520 | 98 |  |
| CC[C@@H]([C@H](O)c1ccccc1)N(C)N (racemic) [Compound 21] |  | 260 | 158 |  |
| CCC[C@@H](NN)[C@@H](O)c1ccccc1 (racemic) [Compound 22] |  | 1200 | 9 |  |
| CCC[C@@H]([C@H](O)c1ccccc1)N(C)N (racemic) [Compound 23] |  | 260 | 108 |  |
| CC(C)CN(N)CC(O)c1ccccc1 (racemic) [Compound 24] |  | 350 | 32 |  |
| CN(N)CC(O)c1ccccc1Cl (racemic) [Compound 29] |  | 270 | 85 |  |
| COc1ccc(C(O)CNN)cc1 (racemic) [Compound 35] |  | 29 | 207 |  |

| Molecule | IC50 (Total rat MAO) [nM] | IC50 [1, 2] [nM] | Selectivity for VAP-1 SSAO over MAO [1] | IC50 [1, 3] [nM] |
| --- | --- | --- | --- | --- |
| COc1ccc(C(O)CNN)cc1 (racemic) [Compound 36] |  | 17 | 294 |  |
| COc1ccc(C(CN(C)N)OC)cc1 (racemic) [Compound 37] |  | 420 | 105 |  |
| NN(Cc1ccccc1)C(CO)Cc1ccccc1 (racemic) [Compound 38] |  | > 50000 | ≈10 |  |
| NN(Cc1ccccc1)C1CCCCC1O (racemic) [Compound 41] |  | 21900 | 5 |  |
| CN(N)[C@@H]1CCCC[C@]1(O)c1ccccc1 (racemic) [Compound 43] |  | 520 | 19 |  |
| COc1cc2c(cc1OC)C(CCO)N(N)CC2 (racemic) [Compound 45] |  | 8100 | 6 |  |
| NN1Cc2ccccc2CC1CO (racemic) [Compound 46] |  | > 10000 | <61 |  |
| COc1cc2c(cc1OC)CN(N)C(CO)C2 (racemic) [Compound 47] |  | > 10000 | <150 |  |
| C[C@@H]([C@H](O)c1ccccc1)N(C)N (relative stereo) [Compound 2, (1R*,2S*)-2-(1-Methylhydrazino)-1-phenyl-1-propanol hydrochloride] |  |  | 111 | 350 |
| C[C@H]([C@@H](O)c1ccccc1)[N+](C)(C)N (relative stereo) [Compound 4, (1R*,2S*)-1-(2-hydroxy-1-methyl-2-phenylethyl)-1,1-dimethylhydrazinium iodide] |  | > 50000 | ≈10 |  |
| CN(N)[C@H](c1ccccc1)C(O)c1ccccc1 (stereo in doubt) [Compound 5, (1R*,2S*)-2-(1-methylhydrazino)-1,2-diphenylethanol hydrogemnaleate] |  | 410 | 132 |  |
| C[C@@H]([C@H](O)c1ccccc1)N(C)N [Compound 1, (1R,2S)-2-(1-Methylhydrazino)-1-phenyl-1-propanol hydrogenmaleate] |  |  | 141 | 220 |
| COc1cccc(C(CN(C)N)OC)c1 (stereo not shown) [Compound 7, 1-[2-methoxy-2-(m-methoxyphenyl)ethyl]-1-methylhydrazine Hydrogenfumarate] |  | 410 | 107 |  |
| COc1cc2c(cc1OC)C(CO)N(N)CC2 (stereo not shown) [Compound 8, 2-Amino-6,7-dimethoxy-1,2,3,4-tetrahydroisoquinoline-1-methanol hydrochloride] |  | > 10000 | <8 |  |
| COc1ccc(C(O)CN(C)N)cc1 (stereo not shown) [Compound 9, 2-(1-methylhydrazino)-1-(p-methoxyphenyl)ethanol hydrogenfumarate] |  | 310 | 116 |  |
